The target of data set [1] is T1, HsPDF (Homo sapiens, UniProt Q9HBH1).
T1 construct: A 63 amino acid N-terminally truncated human peptide deformylase (HsPDF); 6His (C); made in house; host or cells: E. coli BL21 (DE3), co-transformed with the GroES/EL chaperone plasmid
In words: HsPDF IC50. The text has this:
Table printed on a drawing sheet, Figure 7
Head of the field: HsPDF IC50
The patent's description of the figure: FIG. 7. Cytotoxicity profiling for the thirty-three (33) derivatives of benzofuran-4,5-diones toward […]. The IC50 in μM for each compound toward each cell line is summarized as a heat map.
Where the first naming reader finds the target: head: HsPDF IC50

The subject of data set [2] is EcPDF.
Procedure: Head of the field: EcPDF %I 10uM
(§2) Specificity profiling of the derivatives of benzofuran-4,5-diones.
Where the first naming reader finds the target: head: EcPDF %I 10uM
The test system of the next data set is ALL-3 cells. In words: In vivo efficacy, mouse xenograft model using ALL-3 cells. The conditions noted are these: 1 and 3 mg/kg i.p. twice a week for two weeks. As to the method: The in vivo efficacy of SKI 396848 (SKC-BF-12) was assessed in a mouse xenograft model using ALL-3 cells isolated from a patient with acute lymphoblastic leukemia refractory to imatinib. Three mice per group were treated at two doses: 1 and 3 mg/kg. A control group of three mice was treated with the vehicle (20% DMSO v/v). Mice were treated twice a week for two weeks i.p. Their weight was monitored as well as any other sign of toxicity for 14 days. […] Nonetheless, the observed difference between the treated groups and the control group was significant, and our study provides a solid proof of concept for the use of benzofuran-4,5-dione based HsPDF inhibitors as novel antitumor agents in vivo.

The subject of another data set is MMP-1. In words: MMP-1 %I 100uM. The method, then: Table printed on a drawing sheet, Figure 5
Head of the field: MMP-1 %I 100uM
Footnotes: -26 124 % inhibition
The patent's description of the figure: FIG. 5.
Where the first naming reader finds the target: head: MMP-1 %I 100uM

The next data set deals with ALL3 cells. In words: Cytotoxicity in vitro toward ALL3 cells. It counts as cell-based. As to conditions: Homo sapiens. The source says:
(§1) The cell lines HL-60 (human acute promyelocytic leukemia), Jurkat (human acute T cell leukemia), Molt3 (acute lymphoblastic leukemia), CWR22 (prostate carcinoma), HEK293 (human embryonic kidney), K562 (human chronic myeloid leukemia lymphoblasts), Y79 (human retinoblastoma) were obtained from the ATCC, and cultured following ATCC recommendations. The cell line NCEB-1 (human non-hodgkin lymphoma) was obtained from Dr. O'Connor (Sloan-Kettering Institute). The cell line HL-60/RV+ (a P-glycoprotein-overexpressing multi-drug resistant HL-60 variant selected by continuous exposure to vincristine) was described elsewhere (Weisburg et al., J. Biol. Chem. 1999, 274, 10877-10888). The cell line ALL-3 (acute lymphoblastic leukemia isolated from a patient treated at MSKCC and characterized as Philadelphia chromosome positive) was obtained from Dr. Mark Frattini (MSKCC). The assay used for the cytotoxicity studies is based on the dye resazurin and commercially sold as Alamar Blue (O'Brien et al., Eur. J. Biochem. 2000, 267, 5421-5426). Cells were added in 45 μL medium to the pre-plated compounds in 5 μL of 1% DMSO (v/v). After incubation for 72 hours, 5 μL of Alamar Blue was added.

Data set [3] can be described thus: In vivo toxicity of benzofuran-4,5-diones. As to conditions: i.p. twice a day for four days, 1 to 10 mg/kg, monitored 14 days. As to the method:
Lead compound SKC-BF-13 and another newly synthesized derivative SKC-BF-02 were selected in order to assess the in vivo toxicity of benzofuran-4,5-diones. Three mice per group were treated with BF-13 at three doses (i.e., 1, 5 and 10 mg/kg) or with SKC-BF-02 at two doses (i.e., 1 and 10 mg/kg). A control group of two mice were treated with the vehicle (i.e., 20% DMSO v/v). Mice were treated twice a day for four days via intraperitoneal administration. Their weight was monitored along with any other signs of toxicity for fourteen days.
ICR/SCID male mice about three weeks old were used in this study. Three mice per group were treated with BF-13 at three doses (i.e., 1, 5 and 10 mg/kg) or with SKC-BF-02 at two doses (i.e., 1 and 10 mg/kg). A control group of two mice were treated with the vehicle (20% DMSO v/v). Mice were treated twice a day for four days via intraperitoneal administration. Their weight was monitored as well as any other sign of toxicity for 14 days.
SKI 396848 (SKC-BF-12) and SKI 396840 (SKC-BF-02) were synthesized during the first round of exploratory chemistry to assess the in vivo toxicity of benzofuran-4,5-diones (as shown in FIG. 8). Three ICR/SCID male mice per group were treated with SKI 396848 at three doses: 1, 5 and 10 mg/kg or with SKI 396840 at two doses: 1 and 10 mg/kg. A control group of two mice was treated with the vehicle (20% DMSO v/v). Mice were treated twice a day for four days i.p. Their weight was monitored as well as any other sign of toxicity for 14 days. One treated mouse per group was evaluated by a pathologist.

Data set [4] deals with EcPDF. This is another data set of the same source.
Procedure: Head of the field: EcPDF %I 100uM
as §2
Where the first naming reader finds the target: head: EcPDF %I 100uM
For a further data set, the system named is Jurkat tumors. In words: In vivo study, mouse xenograft with Jurkat tumors. As to conditions: 5, 15 and 30 mg/kg i.p. twice a week for three weeks. The method, then: In this study, higher doses could be achieved by injecting the drug in a small volume (100 μL) of 100% DMSO (v/v). Three mice per group were treated at three doses: 5, 15 and 30 mg/kg. A control group of three mice was treated with the vehicle (100% DMSO v/v). Mice were treated i.p. twice a week for three weeks. Unfortunately, a large variability in the growth of the Jurkat tumors caused data interpretation to be difficult.

Data set [5] has as its target T2, HsPDF (Homo sapiens, UniProt Q9HBH1).
T2 construct: A 63 amino acid N-terminally truncated human peptide deformylase (HsPDF); 6His (C); made in house; host or cells: E. coli BL21 (DE3), co-transformed with the GroES/EL chaperone plasmid
T2 sequence (Q9HBH1 64-243 limits assumed): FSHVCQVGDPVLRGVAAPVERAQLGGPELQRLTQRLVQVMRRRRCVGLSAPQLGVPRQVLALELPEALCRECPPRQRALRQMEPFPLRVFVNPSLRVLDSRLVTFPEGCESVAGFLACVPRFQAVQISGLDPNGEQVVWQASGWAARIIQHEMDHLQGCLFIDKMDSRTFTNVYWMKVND
In words: FP binding assay (fluorescence polarization, probe SKI 267088), specificity profiling and dose response. As to conditions: dose response, 12 point doubling dilutions, upper limit 100 μM. As to the method: Specificity profiling was performed on the newly synthesized benzofuran-4,5-diones using the aforementioned FP profiling method (Antczak et al., J. Biomol. Screen 2008, 13, 285-294).
Compounds or high/low controls were added to the wells at a volume of 2 μL. […] High controls consisted of 1% DMSO (v/v). MBP-HsPDF or the metalloprotease to be tested was diluted in the assay buffer (25 mM Hepes, 50 mM NaCl, 0.005% Tween 20, pH 7.5), and 10 μL where added to the 384-well microplates (Low Volume Round Bottom NBS Treated, Corning) to achieve a final concentration of 1 μM. After addition of MBP-HsPDF to the tested compounds, the 384-well microplates were preincubated for one hour at room temperature. Then 8 μL of the probe SKI 267088 in solution in assay buffer was added to the wells at a final concentration of 5 nM. After one hour incubation at room temperature, the fluorescence polarization was read using the Amersham LEADseeker™ Multimodality Imaging System equipped with Cy3 excitation/emission filters and Cy3 FP epi-mirror. Quench tests were performed in duplicate by measuring the fluorescence polarization of wells containing the probe, pre- and post-addition of the compounds at 100 μM.
In each assay, the signal inhibition induced by the compounds was expressed as a percentage compared to high and low controls located on the same plate, as defined as % Inhibition=(high control average−read value)/(high control average−low control average)×100. The dose response was assessed in duplicate and using 12 point doubling dilutions with 100 μM compound concentration as the upper limit. The dose response curve for each set of data was fitted separately, and the two IC50 values obtained were averaged.

Data set [6] relates to panel of cancer cell lines. In words: Cytotoxicity assay (Alamar Blue), primary hits and first generation derivatives. As to conditions: Homo sapiens; first generation, panel of nine cancer cell lines; SKC-BF-13: on four cell lines; read-out: cytotoxicity IC50, Alamar Blue viability assay. It counts as cell-based, human. As to the method:
Cytotoxicity assays were performed in order to profile the thirty-three newly synthesized benzofuran-4,5-dione derivatives on a panel of nine cancer cell lines. A heat map summarizes the calculated IC50s ([…]). Twelve out of thirteen derivatives potent toward HsPDF were also cytotoxic toward several cancer cell lines (FIG. 7).
as §1, with “Cells were added in 45 μL medium to the pre-plated compounds in 5 μL of 1% DMSO (v/v). After incubation for 72 hours, 5 μL of Alamar Blue was added.” left out

The subject of a further data set is Jurkat cell line. In words: Cytotoxicity in vitro toward Jurkat cell line. The conditions noted are these: Homo sapiens, acute T-cell leukemia. In kind it is cell-based.
Text: as §1

The nature of data set [7]: Aqueous solubility limit by laser nephelometry. The conditions noted are these: aqueous solution (composition not stated), kinetic from dmso stock, upper limit 10 μM. It counts as physicochemical. The source says: We assessed the aqueous solubility limit for the 26 novel benzofuran-4,5-diones using laser nephelometry. […] Data were compared to standards of known turbidity to assess the solubility limit for each compound.

For data set [8], the system named is panel of eight cancer cell lines. In words: Cytotoxicity profiling of 26 second generation derivatives (Alamar Blue viability assay, nuclei count). It counts as cell-based, human. The method, then:
Cytotoxicity profiling for the 26 newly synthesized benzofuran-4,5-diones derivatives was performed on a panel of eight cancer cell lines.
The cell lines HL-60 (human acute promyelocytic leukemia), Jurkat (human acute T cell leukemia), Molt3 (acute lymphoblastic leukemia), CWR22 (prostate carcinoma), K562 (human chronic myeloid leukemia lymphoblasts), and Y79 (human retinoblastoma) were obtained from the ATCC, and cultured following ATCC recommendations. The cell line HL-60/RV+ (a P-glycoprotein-overexpressing multi-drug resistant HL-60 variant selected by continuous exposure to vincristine) was described elsewhere (Weisburg J H, Roepe P D, Dzekunov S, Scheinberg D A: Intracellular pH and multidrug resistance regulate complement-mediated cytotoxicity of nucleated human cells. J Biol Chem 1999; 274:10877-10888). The cell line ALL-3 (acute lymphoblastic leukemia isolated from a patient treated at MSKCC and characterized as Philadelphia chromosome positive) was obtained from Dr. Mark Frattini (MSKCC). The viability assay we used in this study is based on the dye resazurin and commercially sold as Alamar Blue (O'Brien J, Wilson I, Orton T, Pognan F: Investigation of the Alamar Blue (resazurin) fluorescent dye for the assessment of mammalian cell cytotoxicity. Eur J Biochem 2000; 267:5421-5426). Cells were added in 45 μL medium to the pre-plated compounds in 5 μL of 1% DMSO (v/v). After 72 h incubation was added 5 μL Alamar Blue. […] Plates were then fixed and nuclei were stained using Hoechst for the nuclear count proliferation assay. Imaging for Hoechst staining of nuclei count were acquired with an IN Cell Analyzer 2000 epifluorescence automated microscope ([…]) (GE Healthcare, Piscataway, N.J.) equipped with a 4× objective, using D360/40 excitation filter (360 nm excitation peak; +/−40 nm bandpass), HQ535/50 emission filter (535 nm emission peak; +/−50 nm bandpass) and Q505LP dichroic, and exposing fields for 200 milliseconds in the blue channel. Image analysis was conducted with the IN Cell Developer 1.7 software (GE Healthcare) using custom-developed analysis modules. The analysis module used for nuclei count performs object segmentation in the blue channel to automatically define and count the number of nuclei. Data is reported as the sum of imaged nuclei.
In addition of the Alamar Blue viability assay readout, for the adherent cell lines of this panel (CWR22 and Meso47) we performed a direct nuclei count to assess the effect of the novel derivatives on cell proliferation.

Molecules are shown by their SMILES. Values after ≈ are worked out from the molar mass of the structure shown.

On to `COc1ccc(C(=O)c2coc3c2C(=O)C(=O)C(Cl)=C3)cc1` [SKC-BF-04, 6-Chloro-3-(4-methoxybenzoyl)-benzofuran-4,5-dione], for which, at HsPDF [1], the IC50 was found to be 40 µM. Moreover, the “EcPDF %I 10uM” value in the data set with EcPDF [2] is -6 %I.
Taken in the same sequence, the figures for `O=C1C(=O)c2c(C(=O)c3ccccc3)coc2C(Cl)=C1Cl` [SKC-BF-09, 3-Benzoyl-6,7-dichloro-benzofuran-4,5-dione] were 45 µM and 43 %I.
Regarding `COc1ccc(C(=O)c2coc3c2C(=O)C(=O)C(Br)=C3Br)cc1OC` [SKC-BF-12, 6,7-Dibromo-3-(3,4-dimethoxy-benzoyl)-benzofuran-4,5-dione], the “tumor progression in ALL-3 xenograft” value in the data set with ALL-3 cells is given as “only a slight delay in tumor progression”. Besides, the “MMP-1 %I 100uM” value in the data set with MMP-1 is recorded as 46 %I. For the same molecule, in the data set on ALL3 cells, the IC50 came to 36 µM. The “EcPDF %I 10uM” value in the data set with EcPDF [2] is 35 %I. For the same molecule, the “signs of toxicity in vivo (weight and other signs)” value in data set [3] is reported as “None of the treatments were found to induce any signs of toxicity”.
Turning to `COc1cc(C(=O)c2coc3c2C(=O)C(=O)C(Br)=C3Br)cc(OC)c1OC` [SKC-BF-13, 6,7-Dibromo-3-(3,4,5-trimethoxy-benzoyl)-benzofuran-4,5-dione], in the data set on EcPDF [4], the “EcPDF %I 100uM” value was 32 %I. Further, the “body weight of treated groups” value with Jurkat tumors is listed as “no loss of weight”. The “MMP-1 %I 100uM” value with MMP-1 is 38 %I. The IC50 at HsPDF [5] is 5.2 µM; in data set [6], less than 10 µM; in the data set with Jurkat cell line, 3 µM. Also, the “EcPDF %I 10uM” value in the data set on EcPDF [2] stood at 32 %I. Also, the “signs of toxicity in vivo (weight and other signs)” value in data set [3] was “none of the treatments induced any sign of toxicity”.
Regarding `O=C1C(=O)c2c(C(=O)c3ccc(Cl)c(Cl)c3)coc2C(Cl)=C1Cl` [SKI 417516, 6,7-dichloro-3-(3,4-dichlorobenzoyl)benzofuran-4,5-dione], the solubility in data set [7] came out at 5 µM (≈ 1.95 µg/mL). The “activity against the cell lines of the panel, second generation” value in data set [8] was “active against all cell lines of our panel except Meso47”.

Source of the values: patent US8614237B2, “Benzofuran-4,5-diones as selective peptide deformylase inhibitors” (Sloan-Kettering Institute for Cancer Research, priority 2009, dated 2013).
